2 compounds from patent publication US20230011052A1, “METHOD AND COMPOSITIONS FOR REGULATED ARMORING OF CELLS” (Senti Biosciences, Inc., priority 2019, published 2023) can be followed below.

The structures appear in SMILES notation. “And” between values parts separate entries of the source, which are not always exact repeats. Identical values can stand only once. Like-named read-outs stand apart in the source and are kept apart here.

One data set concerns the target T1, ERT2 domain (Homo sapiens, UniProt P03372, G400V/L544A/M543A).
T1 construct: expressed in transfected cells; host or cells: CD4/CD8 T cells, virally transduced
T1 sequence (P03372 311-547 G400V/M543A/L544A limits assumed): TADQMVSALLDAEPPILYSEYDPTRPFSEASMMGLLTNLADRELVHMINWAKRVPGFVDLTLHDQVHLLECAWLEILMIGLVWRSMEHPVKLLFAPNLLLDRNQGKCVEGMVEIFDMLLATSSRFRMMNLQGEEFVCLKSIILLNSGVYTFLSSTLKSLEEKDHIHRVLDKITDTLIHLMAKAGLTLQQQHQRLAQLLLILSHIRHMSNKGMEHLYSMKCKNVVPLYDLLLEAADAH
Put plainly: Tamoxifen (ERT2) regulatable TF reporter and CAR expression in T cells (MFI). Format: cell-based. Conditions: T cells with ERT2 regulatable TF 565 and reporter alone (1066) or on construct also encoding a CAR (2235); 1, 0.25, 0.1 uM or no drug; Day 9 MFI. The text has this:
Various regulatable TF (also referred to as an activation-conditional control polypeptide (ACP) for drug-inducible formats or “synTF”) and expression cassettes were constructed as shown in FIG. 17A. […] The cassettes were cloned into a viral vector and used to produce virus.
On Day 0, CD4/CD8 T cells (FL00711) were thawed and activated with Dynabeads (3:1) in complete T cell media (Optimizer+Supplements—Gibco+5% human serum)+IL-2 (100 Units/ml). On Day 2, cells were transduced with 1×10^5 GV of virus. […] Florescent median intensity (MFI) was assessed of Day 9.

For data set [1], the system named is T cells engineered with drug-inducible ACP (inducible IL-12). Format: in vivo. Conditions: for Human T cells in the blood (hCD3+: hCD45+): inducible IL-12 T cells, individual mice. The procedure:
Negative controls were untransduced T cells. […] All Grz dosing was administered IP.
A first series of Grazoprevir (Grz) dosing regimens were assessed, as described in Table 25.

Data set [2] has as its system T cells engineered with drug-inducible ACP (NS3/NS4 protease cleavage site). Put plainly: In vivo regulated armoring: plasma hIL-12 (Luminex) and circulating human T cells (flow cytometry). Also on record: species or system NSG mice. Conditions: 25 mg/kg Grz IP, BID; T cells with SB01845 & SB02357. How it is done:
Negative controls were untransduced T cells. […] Dosing: Drug treated mice received 25 mg/kg Grz at each dosing time point; vehicle treated mice received equivalent volume of vehicle; all Grz dosing administered IP. Dosing continued BID on days 2-4. […] Mice were bled on day 4 and sacrificed/bled on day 5.

Data set [3] deals with T cells engineered with drug-inducible ACP (inducible IL-12).
Description: Grazoprevir potassium salt was dissolved sequentially in DMSO, PEG400, and PBS to reach 10 mg/mL. All Grz dosing was administered IP. 20e6 T cells per mouse were injected by tail vein injection, as indicated. Luminex assay was run to assess levels of hIL-12 in mouse plasma. Presence of human T cells in mouse blood was analyzed by flow cytometry.
Following the results of the experiments above, animals were dosed (IP) 60 mg/kg for 3 days once a day. Recombinant (hIL-2 1×10^4 IU) was also administered as indicated.
The test system of a further data set is target cells. Put plainly: T cell killing assay (LDH release). Format: cell-based. Conditions: +/- 2 μM GRZ for 48 hours. How it is done: For T cell killing assays, on Day 0 T cells were seeded at 1e6/mL+/−2 μM of GRZ for 48 hours to induce payload. On Day 2, target cells were counted and 35K were seeded per well in a 96 well plate for 4-6 hrs in target cell media. Then target cell media was removed and T cells were counted and 35K CAR normalized T cells were seeded [E:T— 1:1] in 200 µl of Optimizer media overnight. On Day 3, cells were transferred to a V-bottom plate, spun down, and supernatant harvested to determine killing activity using an LDH assay (CyQUANT LDH Cytotoxicity Assay; Life Technologies).
In general terms: LDH in the medium is a marker of cell lysis.

For `CC/C(=C(\c1ccccc1)c1ccc(OCCNC)cc1)c1ccccc1` [N-desmethyltamoxifen], the “reporter (mCherry) expression” value at ERT2 domain is “did not result expression of the reporter”.
For the compound `C=C[C@@H]1C[C@]1(NC(=O)[C@@H]1C[C@@H]2CN1C(=O)[C@H](C(C)(C)C)NC(=O)O[C@@H]1C[C@H]1CCCCCc1nc3ccc(OC)cc3nc1O2)C(=O)NS(=O)(=O)C1CC1.O` [grazoprevir], the “Human T cells in the blood (hCD3+: hCD45+)” value is 5.42 % of live cells and 0.08 % of live cells and 4.07 % of live cells and 3.61 % of live cells and 3.88 % of live cells and 5.91 % of live cells and 4.2 % of live cells and 3.14 % of live cells in data set [1] (Day 4, 25 mg/kg BID Grz IP, 25 mg/kg); 4.09 % of live cells and 2.96 % of live cells and 3.7 % of live cells and 1.62 % of live cells and 4.16 % of live cells and 2.57 % of live cells and 4.55 % of live cells and 2.58 % of live cells in data set [1] (Day 4, 50 mg/kg Grz IP, 50 mg/kg); 2.95 % of live cells and 3.14 % of live cells and 2.6 % of live cells and 0* % of live cells (2×) and 2.41 % of live cells and 1.43 % of live cells and 2.87 % of live cells in data set [1] (Day 4, 75 mg/kg Grz IP, 75 mg/kg); 2.18 % of live cells and 6.98 % of live cells and 6.53 % of live cells and 13 % of live cells and 2.24 % of live cells and 4.72 % of live cells and 5.64 % of live cells and 7.89 % of live cells in data set [1] (Day 4, 25 + 50 mg/kg Grz IP, 50 mg/kg); 6.78 % of live cells and 0.077 % of live cells and 3.63 % of live cells and 2.46 % of live cells and 2.07 % of live cells and 3.45 % of live cells and 2.27 % of live cells and 4.09 % of live cells in data set [1] (Day 8, 25 mg/kg BID Grz IP, 25 mg/kg); 7.36 % of live cells and 10.9 % of live cells and 7.31 % of live cells and 8.1 % of live cells and 9.23 % of live cells and 5.88 % of live cells and 6.63 % of live cells and 7.34 % of live cells in data set [1] (Day 8, 50 mg/kg Grz IP, 50 mg/kg). Besides, the “Human T cells in the blood (hCD3+: hCD45+)” value in data set [1] (Day 8, 75 mg/kg Grz IP, 75 mg/kg) is 8.19 % of live cells and 9.67 % of live cells and 6.55 % of live cells and 0.028 % of live cells and 11.6 % of live cells and 4.7e−003 % of live cells and 11 % of live cells and 3.79 % of live cells; in data set [1] (Day 8, 25 + 50 mg/kg Grz IP, 50 mg/kg), 7.09 % of live cells and 7.85 % of live cells and 9 % of live cells and 12 % of live cells and 6.34 % of live cells and 7.02 % of live cells and 8.65 % of live cells and 5.04 % of live cells; in data set [1] (Day 12, 25 mg/kg BID Grz IP, 25 mg/kg) it was 13.5 % of live cells and 0.21 % of live cells and 13.3 % of live cells and 9.36 % of live cells and 9.33 % of live cells and 14 % of live cells and 16.1 % of live cells and 13.8 % of live cells; in data set [1] (Day 12, 25 + 50 mg/kg Grz IP, 50 mg/kg), 10.9 % of live cells and 12.2 % of live cells and 11.1 % of live cells and 16.3 % of live cells and 2.61 % of live cells and 9.13 % of live cells. The results for the “serum IL-12 levels” value in data set [1] (Day 8) and in data set [1] (Day 12) were “returned to baseline” and “remained stable”, respectively. Moreover, in data set [1] (Day 12), the mice found dead is listed as 2 of 8. In data set [2], the “hIL-12 in the plasma of mice above vehicle” value was approximately 100 fold. For the same compound, the “mice that lost ~15% weight during the first week of dosing” value in data set [3] (60 mg/kg IP, these mice received only 30 mg/kg on day 3) is recorded as 3 of 10. Also, the “plasma IL-12” value is given as “significant Grazoprevir dose dependent induction of IL-12” in data set [3] (Day 4, first on week) and “further significant Grazoprevir dose dependent induction of IL-12” in data set [3] (Day 18, second on week). Moreover, the “injected human T cells in blood when Grz was administered” value in data set [3] (Day 4, 60 mg/kg IP once a day for 3 days) is “significantly less”. Moreover, the “plasma IL-12 levels between drug and no-drug groups” value in data set [3] (Day 11, off week) is recorded as “equivalent”. Further, in data set [3] (Days 11, 18, and 25), the “injected human T cells in blood, inducible system groups with vs without Grz” value was “no difference”. Further, the “organ findings at end time point” value in data set [3] (necropsy) is “pale kidneys, thick diaphragm, enlarged spleen, thick liver lobe, white/yellow lump growing inside the liver, and organs (liver, stomach, spleen) sticking with peritoneal wall and each other”. In addition, the body weight entry in data set [3] (time course) is reported as “transient weight loss”. Besides, the “difference in killing in the presence or absence of grazoprevir” value in the data set on target cells is “No noticeable differences in killing”.
